The source made the active and inactive calls. How the calls were made is not given here.
Tested on: CCRIS mutagenicity, Ames/micronucleus/aberration tests
Assay: CCRIS mutagenicity studies
[1] = Test System: AMES SALMONELLA TYPHIMURIUM, Strain/Indicator: TA98, Metabolic Activation: NONE, Method: STANDARD PLATE
[2] = Test System: AMES SALMONELLA TYPHIMURIUM, Strain/Indicator: TA98, Metabolic Activation: RAT, LIVER, S-9, AROCLOR 1254, Method: STANDARD PLATE
[3] = Test System: AMES SALMONELLA TYPHIMURIUM, Strain/Indicator: TA100, Metabolic Activation: NONE, Method: STANDARD PLATE
[4] = Test System: AMES SALMONELLA TYPHIMURIUM, Strain/Indicator: TA100, Metabolic Activation: RAT, LIVER, S-9, AROCLOR 1254, Method: STANDARD PLATE
[5] = Test System: AMES SALMONELLA TYPHIMURIUM, Strain/Indicator: TA1535, Metabolic Activation: NONE, Method: STANDARD PLATE
[6] = Test System: AMES SALMONELLA TYPHIMURIUM, Strain/Indicator: TA1535, Metabolic Activation: RAT, LIVER, S-9, AROCLOR 1254, Method: STANDARD PLATE
[7] = Test System: AMES SALMONELLA TYPHIMURIUM, Strain/Indicator: TA1537, Metabolic Activation: NONE, Method: STANDARD PLATE
[8] = Test System: AMES SALMONELLA TYPHIMURIUM, Strain/Indicator: TA1537, Metabolic Activation: RAT, LIVER, S-9, AROCLOR 1254, Method: STANDARD PLATE
[9] = Test System: MOUSE LYMPHOMA, Strain/Indicator: L5178Y (TK+/TK-), Metabolic Activation: NONE, Method: SUSPENSION/PLATE
[10] = Test System: AMES SALMONELLA TYPHIMURIUM, Strain/Indicator: TA98, Metabolic Activation: NONE, Method: PREINCUBATION
[11] = Test System: AMES SALMONELLA TYPHIMURIUM, Strain/Indicator: TA100, Metabolic Activation: NONE, Method: PREINCUBATION

`O=C1c2ccccc2-c2ccccc21` was tested, and the mutagenic call (Test System: AMES SALMONELLA TYPHIMURIUM, Strain/Indicator: TA98, Metabolic Activation: HAMSTER, LIVER, S-9, AROCLOR 1254, Method: STANDARD PLATE) was “inactive; negative”, the mutagenic call [1] was “inactive; negative” and the mutagenic call [2] was “inactive; negative”. For the same molecule, the mutagenic call (Test System: AMES SALMONELLA TYPHIMURIUM, Strain/Indicator: TA100, Metabolic Activation: HAMSTER, LIVER, S-9, AROCLOR 1254, Method: STANDARD PLATE) was “inactive; negative”, the mutagenic call [3] was “inactive; negative” and the mutagenic call [4] was “inactive; negative”. The mutagenic call (Test System: AMES SALMONELLA TYPHIMURIUM, Strain/Indicator: TA1535, Metabolic Activation: HAMSTER, LIVER, S-9, AROCLOR 1254, Method: STANDARD PLATE) was “inactive; negative”, the mutagenic call [5] was “inactive; negative” and the mutagenic call [6] was “inactive; negative”. The mutagenic call (Test System: AMES SALMONELLA TYPHIMURIUM, Strain/Indicator: TA1537, Metabolic Activation: HAMSTER, LIVER, S-9, AROCLOR 1254, Method: STANDARD PLATE) was “inactive; negative”, the mutagenic call [7] was “inactive; negative” and the mutagenic call [8] was “inactive; negative”. The mutagenic call [9] was “inactive; negative. reevaluation of results: inconclusive” and the mutagenic call (Test System: MOUSE LYMPHOMA, Strain/Indicator: L5178Y (TK+/TK-), Metabolic Activation: RAT, LIVER, S-9, AROCLOR 1254, Method: SUSPENSION/PLATE) was “inactive; negative. reevaluation of results: negative”.
In the case of `C1CCC2(CC1)CO2`, the mutagenic call [3] is reported as “inactive; negative”.
With `C=C[C@H]1CN2CC[C@H]1C[C@H]2[C@H](OC(=O)OCC)c1ccnc2ccc(OC)cc12` the mutagenic call [10] was “inactive; negative”, the mutagenic call (Test System: AMES SALMONELLA TYPHIMURIUM, Strain/Indicator: TA98, Metabolic Activation: RAT, LIVER, S-9, Method: PREINCUBATION) was “inactive; negative” and the mutagenic call [11] was “inactive; negative”. The mutagenic call (Test System: AMES SALMONELLA TYPHIMURIUM, Strain/Indicator: TA100, Metabolic Activation: RAT, LIVER, S-9, Method: PREINCUBATION) was “inactive; negative”.
`C[C@]12CC[C@H](OC(=O)/C=C/c3cccc(N(CCCl)CCCl)c3)CC1=CC[C@@H]1[C@@H]2CC[C@]2(C)NC(=O)CC[C@@H]12` was tested, and the mutagenic call [1] was “inactive; negative”, the mutagenic call [2] was “inactive; negative” and the mutagenic call [3] was “inactive; negative”. The mutagenic call [4] was “inactive; negative”, the mutagenic call [5] was “active; positive” and the mutagenic call [6] was “active; positive”. For the same molecule, the mutagenic call [7] was “inactive; negative” and the mutagenic call [8] was “inactive; negative”.
`Cc1ccc(C2CO2)cc1C` (stereo not drawn) was tested, and the mutagenic call (Test System: E. COLI, Strain/Indicator: WP2, Metabolic Activation: NONE, Method: STANDARD PLATE) was “active; positive” and the mutagenic call (Test System: E. COLI, Strain/Indicator: WP2 UVRA, Metabolic Activation: NONE, Method: STANDARD PLATE) was “active; positive”.
With `CO` the mutagenic call [10] was “inactive; negative”, the mutagenic call (Test System: AMES SALMONELLA TYPHIMURIUM, Strain/Indicator: TA98, Metabolic Activation: RAT, LIVER, S-9, KC 500, Method: PREINCUBATION) was “inactive; negative” and the mutagenic call [11] was “inactive; negative”. The mutagenic call (Test System: AMES SALMONELLA TYPHIMURIUM, Strain/Indicator: TA100, Metabolic Activation: RAT, LIVER, S-9, KC 500, Method: PREINCUBATION) was “inactive; negative”, the mutagenic call (Test System: AMES SALMONELLA TYPHIMURIUM, Strain/Indicator: TA1535, Metabolic Activation: NONE, Method: PREINCUBATION) was “inactive; negative” and the mutagenic call (Test System: AMES SALMONELLA TYPHIMURIUM, Strain/Indicator: TA1535, Metabolic Activation: RAT, LIVER, S-9, KC 500, Method: PREINCUBATION) was “inactive; negative”. The mutagenic call (Test System: AMES SALMONELLA TYPHIMURIUM, Strain/Indicator: TA1537, Metabolic Activation: NONE, Method: PREINCUBATION) was “inactive; negative”, the mutagenic call (Test System: AMES SALMONELLA TYPHIMURIUM, Strain/Indicator: TA1537, Metabolic Activation: RAT, LIVER, S-9, KC 500, Method: PREINCUBATION) was “inactive; negative” and the mutagenic call (Test System: AMES SALMONELLA TYPHIMURIUM, Strain/Indicator: TA1538, Metabolic Activation: NONE, Method: PREINCUBATION) was “inactive; negative”. For the same molecule, the mutagenic call (Test System: AMES SALMONELLA TYPHIMURIUM, Strain/Indicator: TA1538, Metabolic Activation: RAT, LIVER, S-9, KC 500, Method: PREINCUBATION) was “inactive; negative”, the mutagenic call (Test System: E. COLI, Strain/Indicator: WP2 UVRA, Metabolic Activation: NONE, Method: PREINCUBATION) was “inactive; negative” and the mutagenic call (Test System: E. COLI, Strain/Indicator: WP2 UVRA, Metabolic Activation: RAT, LIVER, S-9, KC 500, Method: PREINCUBATION) was “inactive; negative”.
With `O=C1c2c(ccc3ccccc23)-c2ccc3ccccc3c21` the mutagenic call [1] was “inactive; negative” and the mutagenic call [3] was “inactive; negative”.
`Nc1ccc2c(c1)oc1ccccc12` was tested, and the mutagenic call [1] was “active; positive”, the mutagenic call (Test System: AMES SALMONELLA TYPHIMURIUM, Strain/Indicator: TA98, Metabolic Activation: S-9, PHENOBARBITAL AND 5,6-BENZOFLAVONE, Method: STANDARD PLATE) was “active; positive” and the mutagenic call [3] was “inactive; negative”. For the same molecule, the mutagenic call (Test System: AMES SALMONELLA TYPHIMURIUM, Strain/Indicator: TA100, Metabolic Activation: S-9, PHENOBARBITAL AND 5,6-BENZOFLAVONE, Method: STANDARD PLATE) was “active; positive”.
With `CC(CCC(=O)O)(c1ccc(O)cc1)c1ccc(O)cc1` the mutagenic call [9] was “active; positive” and the mutagenic call (Test System: MOUSE LYMPHOMA, Strain/Indicator: L5178Y (TK+/TK-), Metabolic Activation: RAT LIVER S-9, AROCLOR, Method: SUSPENSION/PLATE) was “active; positive”.
With `CC(=O)OC1Cc2cc3cccc4ccc5ccc1c2c5c43` (stereo not drawn) the mutagenic call [1] was “active; positive” and the mutagenic call [3] was “active; positive”.
In the case of `CCOCCl`, the mutagenic call (Test System: E. COLI, Strain/Indicator: H/R30R, Metabolic Activation: NONE, Method: PREINCUBATION) is reported as “active; positive” and the mutagenic call (Test System: E. COLI, Strain/Indicator: HS30R UVRA, Metabolic Activation: NONE, Method: PREINCUBATION) is reported as “active; positive”.
In the case of `O=C(Nc1ccc2c(O)c(N=Nc3ccc(N=Nc4ccc(S(=O)(=O)O)cc4)cc3)c(S(=O)(=O)O)cc2c1)c1ccccc1`, the mutagenic call [1] is reported as “inactive; negative”, the mutagenic call [2] is reported as “inactive; negative” and the mutagenic call [3] is reported as “inactive; negative”. For the same molecule, the mutagenic call [4] was “inactive; negative”, the mutagenic call [5] was “inactive; negative” and the mutagenic call [6] was “inactive; negative”. The mutagenic call [7] was “inactive; negative”, the mutagenic call [8] was “inactive; negative” and the mutagenic call (Test System: AMES SALMONELLA TYPHIMURIUM, Strain/Indicator: TA1538, Metabolic Activation: NONE, Method: STANDARD PLATE) was “inactive; negative”. The mutagenic call (Test System: AMES SALMONELLA TYPHIMURIUM, Strain/Indicator: TA1538, Metabolic Activation: RAT, LIVER, S-9, AROCLOR 1254, Method: STANDARD PLATE) was “inactive; negative”.

From PubChem BioAssay AID1259407 (Chemical Carcinogenesis Research Information System (CCRIS), 2018)
